Measurements as given in patent US20200297749A1, “Methods and Pharmaceutical Composition for Modulation Polarization and Activation of Macrophages” (priority 2015, published 2020).
Residues, ends and D or L forms follow the SMILES beside them. *: point of attachment. Cbz = O=C(OCc1ccccc1)*

Legend:
NLRP3 [1] = assay: P2Y2-induced NLRP3 degradation in transfected 293T cells (western blot); type: cell-based; settings: for NLRP3 degradation: pharmacological inhibition of SRC; for down regulation of NLRP3 by P2Y2: 293T cells co-expressing NLRP3 and GFP-P2Y2
Method: Cells were washed twice with PBS and lysed in appropriated buffer (250 mM NaCl, 0.1% NP-40, 5 mM EDTA, 10 mM Na3VO4, 10 mM NaF, 5 mM DTT, 3 mM Na4P207, 1 mM EGTA, 10 mM Glycerol phosphate, 10 mM Tris-Hcl (pH=7.5) and the protease and phosphatase inhibitors (Roche)). 10-40 μg of protein extracts were run on 4-12% or 10% SDS-PAGE and transferred at 4° C. onto a nitrocellulose membrane (0.2 Micron). After incubation for 2 hours at room temperature with 5% nonfat milk or BSA (Bovine Serum Albumine) in Tris-buffered saline and 0.1% Tween 20 (TBS-Tween), membranes were incubated with primary antibody at 4° C. overnight. […] The primary antibodies against GFP (D5.1), PYK2 (5E2). PYK2Y402*, SRC (36D10), SRCY416*, AMPKα (F6), AMPKT172* (40H9) and LC3A/B were obtained from Cell Signaling. Primary antibodies against IL-1β, CASP1, ASC (TMS1), IRF5, PNX1, Actin and GAPDH were purchased from Abcam. The primary antibodies anti-CAp24 (42-50) and anti-gp120 (2G12) were from NIH (AIDS Research and Reference Reagent Program, Division of AIDS, NIAID). Antibody anti-NLRP3 was from Adipogen (Cryo-2), anti-P2Y2 was from Alomone, anti-ubiquitin (P4D1) was from Santa-Cruz, anti-TOM20 and anti-Flag were from Sigma. For immunoprecipitations, cell pellets were lysed 6 hours after infection or 24 hours after transfection in CHAPS buffer (50 mM Tris-HCl (pH=7.5), 0.50 M NaCl and 0.1% CHAPS) containing protease and phosphatase inhibitors. Anti-NLRP3 (Origene), anti-P2Y2 (Abcam) antibodies were incubated overnight at 4° C. with the cell lysates. The complexes were precipitated by incubation with Protein G Sepharose™ 4 Fast Flow (GE Healthcare). For anti-Flag immunoprecipitations, anti-Flag® M2 affinity Gel (Sigma) were incubated for overnight at 4° C. with the cell lysates. […] Western blots shown are representative of at least of three independent experiments.

[2] = system: PMA-treated THP-1 macrophages stimulated with lipopolysaccharide and ATP (LPS+ATP); assay: IL-1β secretion by LPS+ATP-stimulated PMA-treated THP-1 macrophages (ELISA); type: cell-based, Human; settings: for IL-10 secretion: PMA-treated THP-1 macrophages, LPS+ATP, drug 100 μM during stimulation, FIG. 1a; for exacerbated IL-1β secretion of P2Y2-inhibited THP-1 macrophages: LPS+ATP stimulation, added 18 hours before; for IL-1β secretion: after stimulation with LPS+ATP
Method: (§1) Human THP-1 cells were cultured in RPMI 1640 media, supplemented with 10% FBS. THP-1 cells were differentiated by treatment for 3 hours with 100 nM phorbol-12-myristate-13-acetate (PMA, Invivogen). After 2 days THP-1 cells were stimulated first 3 hours with ultrapure LPS from E. coli (10 ng/ml, LPS) and then stimulated for 6 hours with ATP (5 mM, Sigma). Supernatants were used for cytokine assays and cell lysates for western blot analysis. Kaempferol (100 μM, Sigma), OxATP (100 μM, Sigma), Suramine (100 μM, Sigma), or Bafilomycine A1 ([…], TOCRIS) were added during LPS+ATP stimulation, while, PP1 (20 μM, Sigma), PP2 (20 μM, Sigma). MnTBAP (10 μM, Sigma) and NAC (100 μM, Sigma) 18 hours before LPS+ATP stimulations. Commercially available ELISA kits for […] (Ebioscience), IL-10 (BD) or LDH (Roche) were used according to the manufacturers' instructions.

R5-tropic HIV-1BaL = assay: HIV-1BaL replication in human MDMs (p24 release); type: cell-based
NLRP3 inflammasome = assay: IL-1β maturation under P2Y2 inhibition; type: cell-based; settings: P2Y2i alone
Method: (§2) Cells were washed twice with PBS and lysed in appropriated buffer (250 mM NaCl, 0.1% NP-40, 5 mM EDTA, 10 mM Na3VO4, 10 mM NaF, 5 mM DTT, 3 mM Na4P207, 1 mM EGTA, 10 mM Glycerol phosphate, 10 mM Tris-Hcl (pH=7.5) and the protease and phosphatase inhibitors (Roche)). 10-40 μg of protein extracts were run on 4-12% or 10% SDS-PAGE and transferred at 4° C. onto a nitrocellulose membrane (0.2 Micron). After incubation for 2 hours at room temperature with 5% nonfat milk or BSA (Bovine Serum Albumine) in Tris-buffered saline and 0.1% Tween 20 (TBS-Tween), membranes were incubated with primary antibody at 4° C. overnight. […] The primary antibodies against GFP (D5.1), PYK2 (5E2). PYK2Y402*, SRC (36D10), SRCY416*, AMPKα (F6), AMPKT172* (40H9) and LC3A/B were obtained from Cell Signaling. Primary antibodies against IL-1β, CASP1, ASC (TMS1), IRF5, PNX1, Actin and GAPDH were purchased from Abcam. The primary antibodies anti-CAp24 (42-50) and anti-gp120 (2G12) were from NIH (AIDS Research and Reference Reagent Program, Division of AIDS, NIAID). Antibody anti-NLRP3 was from Adipogen (Cryo-2), anti-P2Y2 was from Alomone, anti-ubiquitin (P4D1) was from Santa-Cruz, anti-TOM20 and anti-Flag were from Sigma. […]

[3] = system: M2 human monocyte derived macrophages (MDMs); assay: M1 polarization assays in M2 monocyte derived macrophages; type: cell-based
Method: M2 MDMs that express at 100% the differentiation marker CD11b and the scavenger receptor M2 marker CD163 were then seeded (0.5×10^6/ml in macrophage medium+10% FBS), let to be attached on the plates for 2 hours at 37° C. before treatments with interferon γ (IFNγ) (1 μg/0.5×10^6 MDMs), kaempferol (100 μM) or DMSO for control cells. MDMs and supernatants were harvest for flow cytometry and confocal microscopy analysis at 24 hours post-kaempferol treatments and for cytokines IL-10 ELISA analyses at 96 hours post-kaempferol treatments. Expressions of CD163 and IRF5 were respectively determined by flow cytometry and western blot. Release of IL-1β and IL-10 was determined as indicated above by ELISA.

[4] = system: LPS+ATP-stimulated PMA-treated THP-1 macrophages; assay: Fragmentation of the mitochondrial network (TOM20, Mitotracker Green fluorescence microscopy); type: cell-based, Human; settings: TOM20 or Mitotracker Green
Method: For immunofluorescence, cells were fixed in 2% paraformaldehyde-PBS for 5 minutes, permeabilized in 0.3% Triton (Sigma) in PBS, and incubated with PBS-FBS 20% for 1 hour, as previously described^39. Mitochondrial fragmentation and actin polymerization were analysed respectively using Mitotracker® Green FM (20 nM, Invitrogen) and Alexa Fluor 488 Phalloidin. For immunohistochemistry, 4-μm sections were cut from the paraffin blocks of the paraformaldehyde fixed tissues from mice, Macaca fascicularis or humans. After paraffin removal, slides were subjected to antigen retrieval by microwave boiling in 1 mmol/l EDTA pH 9.0. Slides were incubated with anti-P2Y2 (Alomone), anti-NLRP3 (Abcam), anti-CD163 (BD laboratories), anti-gp120 (2G12), anti-CD40 (BD laboratories) or anti-CASP1 p10 (Santa Cruz) overnight after permeabilization in 0.3% Triton for 5 minutes and saturation in PBS-FBS 20% for 1 hour. […] Cells were analysed by fluorescent confocal microscopy on Leica SPE (using a 63× objective). […] Mice alveolar macrophages were dissociated from lung (using Lung Dissociation kit from Miltenyi Biotech) and analysed using anti-CD11b (APC-Cy7) (BD laboratories), anti-CD11c (PE-Cy7) (BioLegend), anti-CD40 (eFluo710) (BioLegend), anti-F4/80 (FITC) (ebioscience) and anti-GR-1 (PE) (ebioscience).

[5] = system: PMA-differentiated THP-1 macrophages stimulated with LPS+ATP; assay: Viability / LDH release of LPS+ATP-stimulated THP-1 macrophages; type: cell-based, Human; settings: in comparison with the control
Method: as §1

[6] = system: LPS+ATP-stimulated PMA-treated THP-1 macrophages; assay: Quantification of ROS production (H2DCFDA, MitoSOX); type: cell-based, Human; settings: detectable with H2DCFDA or MitoSOX
Method: Mitochondria-associated ROS levels were measured by staining cells with H2DCFDA at 5 μM for 1 hour or with MitoSOX at 0.25 μM for 10 minutes at 37° C. Cells were then washed twice with HBSS solution and suspended in cold HBSS solution containing 1% FBS for FACS analysis^25.

NLRP3 [7] = assay: NLRP3 ubiquitinylation/degradation in HIV-1NL4-3-infected THP-1 monocytes; type: cell-based, human; settings: THP-1, HIV-1NL4-3 infection
Method: as §2

HIV-1NL4-3 = assay: HIV-1 permissiveness of THP-1 monocytes (intracellular p24); type: cell-based; settings: human monocytes THP-1
Method: as §2

Compound: Cc1ccc(-c2nn(C(C)(C)C)c3ncnc(N)c23)cc1 [PP1]
- NLRP3 degradation (NLRP3 [1]): impaired

Compound: Cc1ccc(C(=O)Nc2ccc(S(=O)(=O)O)c3cc(S(=O)(=O)O)cc(S(=O)(=O)O)c23)cc1NC(=O)c1cccc(NC(=O)Nc2cccc(C(=O)Nc3cc(C(=O)Nc4ccc(S(=O)(=O)O)c5cc(S(=O)(=O)O)cc(S(=O)(=O)O)c45)ccc3C)c2)c1 [suramin]
- IL-10 secretion [2]: increased

Compound: CC(C)C[C@@H](C=O)NC(=O)[C@H](CC(C)C)NC(=O)[C@H](CC(C)C)NC(=O)OCc1ccccc1 [MG132] (Cbz-Leu-Leu-Leu-aldehyde)
- down regulation of NLRP3 by P2Y2 (NLRP3 [1]): fully suppressed

Compound: O=C(O)c1ccc(/C2=C3\C=CC(=N3)/C(c3ccc(C(=O)O)cc3)=c3/cc/c4[n]3[Mn]([Cl])[n]3c2ccc3/C(c2ccc(C(=O)O)cc2)=C2/C=CC(=N2)\C=4c2ccc(C(=O)O)cc2)cc1 [MnTBAP]
- exacerbated IL-1β secretion of P2Y2-inhibited THP-1 macrophages [2]: blunted

Compound: O=c1nc2[nH]c(=O)[nH]c2c([O-])[nH]1.[Na+] [MSU, monosodium urate crystals]
- p24 antigen release and replication of R5-tropic HIV-1BaL (R5-tropic HIV-1BaL): reduced

Compound: O=c1c(O)c(-c2ccc(O)cc2)oc2cc(O)cc(O)c12 [kaempferol]
- IL-1β maturation (NLRP3 inflammasome): stimulation
- IL-10 secretion ([3]; M2 human MDMs, kaempferol 100 μM, FIG. 1c): increased
- secretion of the M2 cytokine interleukin-10 (IL-10) ([3]; MDMs, kaempferol 100 μM, 96 hours, FIG. 1e): reduced
- IL-1β secretion ([3]; MDMs, kaempferol 100 μM, FIG. 1c): induction
- M1 polarization ([3]; MDMs, kaempferol 100 μM, FIG. 1e): favoured the M1 polarization
- membrane expressions of the M2 markers such as CD163 ([3]; flow cytometry, 24 hours post-kaempferol): diminished
- expression of IFN regulatory factor 5 (IRF5) ([3]; western blot): increased
- fragmentation of the mitochondrial network [4]: caused fragmentation
- IL-10 secretion [2]: increased
- viability (cell death, pyroptosis) [5]: lost their viability
- LPS+ATP-induced ROS production [6]: increased

Compound: O=C1C(=Cc2ccc([N+](=O)[O-])cc2)CS(=O)(=O)CC1=Cc1ccc([N+](=O)[O-])cc1 [G5]
- ubiquitinylation/degradation of NLRP3 (NLRP3 [7]): increased
- HIV-1 permissiveness (intracellular accumulation of p24) (HIV-1NL4-3): enhanced
- down regulation of NLRP3 by P2Y2 (NLRP3 [1]): partially inhibited

Compound: Nc1ncnc2c1ncn2[C@@H](C=O)O[C@@H](C=O)COP(=O)(O)OP(=O)(O)OP(=O)(O)O [oxidized ATP]
- IL-1β secretion [2]: inhibited

Compound: CC(=O)N[C@@H](CS)C(=O)O [N-Acetyl Cysteine]
- exacerbated IL-1β secretion of P2Y2-inhibited THP-1 macrophages [2]: blunted

Compound: O=c1ccn([C@@H]2O[C@H](COP(=O)(O)OP(=O)(O)OP(=O)(O)OP(=O)(O)Oc3ccccc3)[C@@H](O)[C@H]2O)c(=O)[nH]1 [MRS2768]
- IL-1β secretion [2]: impaired

Compound: CC(C)(C)n1nc(-c2ccc(Cl)cc2)c2c(N)ncnc21 [PP2]
- NLRP3 degradation (NLRP3 [1]): impaired
